# Results from ChEMBL document CHEMBL5331072, “Development of potent and selective FAAH inhibitors with improved drug-like properties as potential tools to treat neuroinflammatory conditions” (Eur J Med Chem, 2023).
# Activity calls are given as the source filed them. The calls are words filed in the database; no cut-off is given here.
# Columns and labels:
# [1] = target: T1, Monoglyceride lipase (Homo sapiens, UniProt Q99685); assay: Inhibition of human recombinant MAGL using 7-hydroxycoumarinyl arachidonate as substrate preincubated for 30 mins followed by substrate addition and measured after 30 mins by multimode plate reader analysis
# T1 sequence (Q99685 whole entry): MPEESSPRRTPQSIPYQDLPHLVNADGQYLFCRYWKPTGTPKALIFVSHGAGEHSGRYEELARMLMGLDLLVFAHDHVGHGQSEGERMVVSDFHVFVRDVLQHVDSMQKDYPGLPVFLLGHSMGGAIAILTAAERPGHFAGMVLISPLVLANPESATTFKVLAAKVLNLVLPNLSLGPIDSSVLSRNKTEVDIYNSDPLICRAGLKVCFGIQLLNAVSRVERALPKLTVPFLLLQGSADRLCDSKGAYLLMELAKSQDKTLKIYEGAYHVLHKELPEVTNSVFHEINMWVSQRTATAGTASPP
# [2] = Solubility of compound at pH 7.4 measured for 24 hrs; format: physicochemical; details: buffer
# [3] = Chemical stability of the compound at pH 7.4 measured for 24 hrs by HPLC analysis; format: physicochemical; details: buffer, read-out: Stability
# [4] = Chemical stability of the compound at pH 3 measured for 24 hrs by HPLC analysis; format: physicochemical; details: buffer, read-out: Stability
# [5] = target: T2, Fatty-acid amide hydrolase 1 (Homo sapiens, UniProt O00519); assay: Inhibition of human recombinant FAAH using AMC-AA as substrate preincubated for 30 mins followed by substrate addition and measured after 30 mins by multimode plate reader analysis
# T2 sequence (O00519 whole entry): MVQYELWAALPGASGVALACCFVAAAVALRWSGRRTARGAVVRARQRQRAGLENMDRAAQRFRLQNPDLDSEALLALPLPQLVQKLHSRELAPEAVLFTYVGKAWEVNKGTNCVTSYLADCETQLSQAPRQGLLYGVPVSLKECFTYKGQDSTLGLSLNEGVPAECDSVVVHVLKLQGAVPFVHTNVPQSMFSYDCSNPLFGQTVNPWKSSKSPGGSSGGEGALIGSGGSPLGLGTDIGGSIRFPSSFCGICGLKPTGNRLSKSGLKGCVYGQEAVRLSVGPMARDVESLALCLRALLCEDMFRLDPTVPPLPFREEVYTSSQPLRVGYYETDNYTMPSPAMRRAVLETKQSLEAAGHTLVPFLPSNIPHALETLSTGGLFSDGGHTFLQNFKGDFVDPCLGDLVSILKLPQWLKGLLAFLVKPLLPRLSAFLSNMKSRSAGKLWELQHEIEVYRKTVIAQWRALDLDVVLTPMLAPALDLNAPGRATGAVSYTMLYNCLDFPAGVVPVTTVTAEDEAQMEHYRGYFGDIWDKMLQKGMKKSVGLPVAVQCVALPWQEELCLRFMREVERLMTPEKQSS
# [6] = Solubility of compound at pH 3 measured for 24 hrs; format: physicochemical; details: buffer
# [7] = tested on: 1321N1; assay: Cytotoxicity against human 1321N1 cells assessed as inhibition of cell growth at 100 nM measured for 24 hrs by MTT assay; format: functional; design: scale not given: the % may be the effect or the level left
# [8] = tested on: 1321N1; assay: Cytotoxicity against human 1321N1 cells assessed as inhibition of cell growth at 10 nM measured for 24 hrs by MTT assay; format: functional; design: scale not given: the % may be the effect or the level left
# [9] = tested on: 1321N1; assay: Cytotoxicity against human 1321N1 cells assessed as inhibition of cell growth at 30 uM measured for 24 hrs by MTT assay; format: functional; design: scale not given: the % may be the effect or the level left
# [10] = Dissociation constant, pKa of the compound; format: physicochemical
# [11] = Neurotoxicity against Wistar rat Hippocampus assessed as cell survival at 0.3 to 100 nM measured for 96 hrs by densitometric analysis; format: toxicity, tissue-based; details: 0.1 µM, dose 0.3-100 nM
# [12] = target: T3, Fatty-acid amide hydrolase 1 (Homo sapiens) (UniProt O00519); assay: Reversible inhibition of human recombinant FAAH at 10 to 100 nM using AMC-AA as substrate preincubated for 30 mins followed by substrate addition and measured after 30 mins by rapid dilution method; details: dose 10-100 nM, time 1.0 hrs
# T3 sequence (whole entry): T2 sequence (O00519 whole entry)
# [13] = Cytotoxicity against mouse NIH3T3 cells assessed as inhibition of cell growth measured for 24 hrs by neutral red uptake assay; format: toxicity, cell-based
# [14] = tested on: Hippocampus; assay: Neuroprotective activity against Wistar rat Hippocampus assessed as reduction in LPS/IFN-gamma induced PI uptake in CA1 region measured for 96 hrs; format: functional, tissue-based
# [15] = tested on: 1321N1; assay: Cytotoxicity against human 1321N1 cells assessed as inhibition of cell growth at 1 uM measured for 24 hrs by MTT assay; format: functional; design: scale not given: the % may be the effect or the level left
# [16] = tested on: 1321N1; assay: Antiinflammatory activity against human 1321N1 cells assessed as reduction in TBHP-induced ROS production at 1 uM incubated for 24 hrs by CellROX green reagent based flow cytometry assay; format: functional, cell-based
# [17] = tested on: 1321N1; assay: Antiinflammatory activity against human 1321N1 cells assessed as reduction in TBHP-induced ROS production at 10 nM incubated for 24 hrs by CellROX green reagent based flow cytometry assay; format: functional, cell-based
# [18] = tested on: 1321N1; assay: Cytotoxicity against human 1321N1 cells assessed as inhibition of cell growth at 10 uM measured for 24 hrs by MTT assay; format: functional; design: scale not given: the % may be the effect or the level left
# [19] = tested on: Hippocampus; assay: Neuroprotective activity against Wistar rat Hippocampus assessed as reduction in LPS/IFN-gamma induced PI uptake in CA1 region at 0.3 to 100 nM measured for 96 hrs; format: functional; design: scale not given: the % may be the effect or the level left; details: dose 0.3-100 nM
# [20] = Solubility of compound at pH 3 measured for 12 hrs; format: physicochemical; details: buffer
# [21] = Solubility of compound at pH 7.4 measured for 12 hrs; format: physicochemical; details: buffer
# [22] = tested on: Hippocampus; assay: Neuroprotective activity against Wistar rat Hippocampus assessed as reduction in LPS/IFN-gamma induced PI uptake in CA1 region at 0.1 to 10 uM measured for 96 hrs; format: functional, tissue-based; details: dose 0.1-10 µM
# [23] = tested on: Hippocampus; assay: Neuroprotective activity against Wistar rat Hippocampus assessed as reduction in LPS/IFN-gamma induced PI uptake in CA1 region at 3 to 100 nM measured for 96 hrs; format: functional, tissue-based; details: dose 3-100 nM
Structure (SMILES),IC50 [1] [nM],solubility at 24 h [2] [µM],remaining at 24 h [3] [%],remaining at 24 h [4] [%],IC50 [5] [nM],solubility at 24 h [6] [µM],other results
Cc1cc(C(N)=O)c(-c2cccc(OC(=O)N3CCC(NCCCc4ccccc4)CC3)c2)o1,9880,322,> 99,> 99,165,353,
Cc1cc(C(N)=O)c(-c2cccc(OC(=O)N3CCN(CCCc4ccccc4)CC3)c2)o1,5060,< 1,> 99,98,8.29,168,Activity [7]: 97%; Activity [8]: 99.3%; Activity [9]: 96%; pKa [10]: 8.5; Activity [11]: Non-Toxic; inhibition [12]: Active; IC50 at 24 h [13]: 6400 nM; EC50 [14]: 2.91 nM; Activity [15]: 100%; Activity [16]: Active; Activity [17]: Active; Activity [18]: 101%; Activity [19]: 70%
Cc1cc(C(N)=O)c(-c2cccc(OC(=O)NCCCCCCN3CCN(C)CC3)c2)o1,> 10000,,,,1040,,
Cc1cc(C(N)=O)c(-c2cccc(OC(=O)N(C)C3CCN(CCc4ccccc4)CC3)c2)o1,> 10000,,,,6560,,
Cc1cc(C(N)=O)c(-c2cccc(OC(=O)NCCCCCCc3ccccc3)c2)o1,,,9,31,,,solubility at 12 h [20]: < 1 µM; IC50 at 24 h [13]: 19200 nM; solubility at 12 h [21]: < 1 µM
NC(=O)c1cn(-c2cccc(OC(=O)N3CCN(CCCc4ccccc4)CC3)c2)nn1,2900,38,> 99,> 99,47.4,298,
Cc1cc(C(N)=O)c(-c2cccc(OC(=O)N3CCC(CCCc4ccccc4)CC3)c2)o1,4120,,,,11.7,,
O=C(Oc1cccc(-c2nn[nH]n2)c1)N1CCN(CCCc2ccccc2)CC1,> 10000,272,> 99,> 99,253,268,
Cc1cc(C(=O)O)c(-c2cccc(OC(=O)NCCCCCCc3ccccc3)c2)o1,2440,172,92.7,< 1,10.5,,
NC(=O)c1cccc(-c2cccc(OC(=O)NC3CCCCC3)c2)c1 [URB-597],9380,,,,,,inhibition [12]: inactive
CN(C(=O)Oc1cccc(-n2ccc(C(N)=O)c2)c1)C1CCN(CCc2ccccc2)CC1,> 10000,,,,> 10000,,
NC(=O)c1ccn(-c2cccc(OC(=O)NC3CCN(CCc4ccccc4)CC3)c2)c1,> 10000,,,,315,,
Cc1cc(C(=O)O)c(-c2cccc(OC(=O)N3CCN(CCCc4ccccc4)CC3)c2)o1,> 10000,259,97,> 99,128,249,
Cc1cc(C(N)=O)c(-c2cccc(OC(=O)NC3CCN(CCc4ccccc4)CC3)c2)o1,> 10000,67,> 99,96,188,282,
Cc1cc(C(N)=O)c(-c2cccc(OC(=O)N3CCN(CCCc4ccccc4)CC3)c2)s1,> 10000,,,,15.6,,
Cc1cc(C(N)=O)c(-c2cccc(OC(=O)NC3CCN(CCc4ccccc4)CC3)c2)s1,> 10000,,,,194,,
NC(=O)c1ccn(-c2cccc(OC(=O)NCCCCCCc3ccccc3)c2)c1,,,38,32,3.72,3,
Cc1cc(C(N)=O)c(-c2cccc(OC(=O)N(C)C3CCN(CCc4ccccc4)CC3)c2)s1,> 10000,,,,8450,,
O=C(NCCCCCCc1ccccc1)Oc1cccc(-c2nn[nH]n2)c1,8400,108,> 99,< 1,7.54,,Activity [7]: 98.5%; Activity [8]: 100.8%; Activity [9]: 97%; Activity [11]: Non-Toxic; IC50 at 24 h [13]: 39000 nM; Activity [14]: Dose-Dependent Effect; Activity [22]: Active; Activity [15]: 98.8%; Activity [16]: Active; Activity [17]: Active; Activity [18]: 99.8%
NC(=O)c1cn(-c2cccc(OC(=O)NCCCCCCc3ccccc3)c2)nn1,479,,79,63,15.8,,IC50 at 24 h [13]: 35000 nM
Cc1cc(C(N)=O)c(-c2cccc(OC(=O)NC3CCN(CCCc4ccccc4)CC3)c2)o1,> 10000,,,,407,,
Cc1cc(C(N)=O)c(-c2cccc(OC(=O)N3CCC(NCCc4ccccc4)CC3)c2)o1,> 10000,206,> 99,> 99,26.3,277,Activity [23]: Active; pKa [10]: 7.6; Activity [11]: Non-Toxic; inhibition [12]: Active; IC50 at 24 h [13]: 45000 nM; Activity [19]: Active
